Laboratory results published in EP4745134A1 (Jiangsu Yahong Meditech Co., Ltd., priority 2023, dated 2025).

Legend:
PRMT5-MTA = PRMT5-MTA (Homo sapiens, UniProt O14744); assay: Enzymatic inhibitory activity against PRMT5-MTA (AlphaScreen); format: biochemical; details: read-out: IC50
In short: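 PRMT5/[…] (1 nM) was preincubated for 30 min at room temperature with 1 µM […] and 2.5 µM SAM, then exposed to compound (10-point, 3-fold from 1000 nM) for 15 min at 23 °C. Histone H4 substrate (5 nM) was added and reacted for 45 min at 23 °C. Symmetric dimethyl-R3 H4 was detected by AlphaScreen and IC50 calculated.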

HCT116-WT cells = assay: Inhibitory activity against cell proliferation (CellTiter Glo, 6 days), HCT116-WT; format: cell-based; details: 144 h, HCT116-WT cells, 6 days, CellTiter Glo; read-out: HCT116-WT IC50
In short: (§1)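 250 cells/well, McCoy's 5A + 10% FBS, o/n 37°C 5% CO2; cpd 8-pt 4-fold from 10000 nM, 6 d; CTG lum on day 7; IC50 vs DMSO.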

HCT116 MTAP KO cells = assay: Inhibitory activity against cell proliferation (CellTiter Glo, 6 days), HCT116 MTAP KO; format: cell-based; details: for IC50: Homo sapiens, HCT-116, 144 h, HCT116 MTAP KO cells, 6 days, CellTiter Glo, read-out: HCT116 MTAP KO IC50; for Selectivity HCT 116-WT/ HCT116 MTAP KO: ratio of IC50 HCT116-WT / HCT116 MTAP KO
In short: as §1

PRMT5-MTA, sequence (O14744 whole entry): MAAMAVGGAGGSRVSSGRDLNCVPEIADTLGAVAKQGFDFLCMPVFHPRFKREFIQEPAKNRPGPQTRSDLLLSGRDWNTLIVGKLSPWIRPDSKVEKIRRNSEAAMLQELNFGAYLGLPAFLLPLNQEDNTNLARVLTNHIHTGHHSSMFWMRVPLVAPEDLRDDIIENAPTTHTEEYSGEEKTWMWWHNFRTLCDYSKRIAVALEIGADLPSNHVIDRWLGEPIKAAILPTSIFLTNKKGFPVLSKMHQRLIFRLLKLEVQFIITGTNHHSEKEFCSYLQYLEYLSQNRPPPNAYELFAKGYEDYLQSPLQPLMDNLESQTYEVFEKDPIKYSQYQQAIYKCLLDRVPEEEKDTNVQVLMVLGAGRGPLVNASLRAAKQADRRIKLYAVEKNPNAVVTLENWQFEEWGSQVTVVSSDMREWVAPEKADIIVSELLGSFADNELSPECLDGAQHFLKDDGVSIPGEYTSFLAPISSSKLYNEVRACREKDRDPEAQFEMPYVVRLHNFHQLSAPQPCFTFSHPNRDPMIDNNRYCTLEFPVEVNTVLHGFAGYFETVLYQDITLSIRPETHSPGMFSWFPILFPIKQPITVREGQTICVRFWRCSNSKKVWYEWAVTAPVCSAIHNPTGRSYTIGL
PRMT5-MTA, sequence (Q9BQA1 whole entry partner): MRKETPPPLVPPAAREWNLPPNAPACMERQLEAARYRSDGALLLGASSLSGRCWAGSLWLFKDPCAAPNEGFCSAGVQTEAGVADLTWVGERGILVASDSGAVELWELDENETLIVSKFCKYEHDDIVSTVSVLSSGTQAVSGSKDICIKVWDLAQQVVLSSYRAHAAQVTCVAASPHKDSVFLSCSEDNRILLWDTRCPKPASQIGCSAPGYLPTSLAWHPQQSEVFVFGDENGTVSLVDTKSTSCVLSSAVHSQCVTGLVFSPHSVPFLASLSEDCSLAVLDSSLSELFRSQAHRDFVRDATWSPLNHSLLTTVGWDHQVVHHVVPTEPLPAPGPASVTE

Structure (SMILES)	IC50 (PRMT5-MTA)	IC50 (HCT116-WT cells)	IC50 (HCT116 MTAP KO cells)	Selectivity HCT 116-WT/ HCT116 MTAP KO (HCT116 MTAP KO cells)
Cc1cc2cc(C(=O)N(Cc3ccc(-c4ccoc4)cn3)N(C)c3ncccn3)ccc2nc1N [Example 156, 2-amino-N-((5-(furan-3-yl)pyridin-2-yl)methyl)-N',3-dimethyl-N'-(pyrimidin-2-yl)quinoline-6-carbohydrazide]	1.8 nM	1540 nM	76 nM	20.26
Cc1cc2cc(C(=O)N(Cc3ccc(-c4cnsc4)cn3)N(C)c3ncccn3)ccc2nc1N [Example 157, 2-amino-N-((5-(isothiazol-4-yl)pyridin-2-yl)methyl)-N',3-dimethyl-N'-(pyrimidin-2-yl)quinoline-6-carbohydrazide]	6.9 nM	361 nM	14 nM	25.79
Cc1nc(C)c(-c2ccc(CN(C(=O)c3ccc4nc(N)c(C)cc4c3)N(c3ncccn3)C3CC3)nc2)s1 [Example 158, 2-amino-N'-cyclopropyl-N-((5-(2,4-dimethylthiazol-5-yl)pyridin-2-yl)methyl)-3-m ethyl-N'-(pyrimidin-2-yl)quinoline-6-carb ohydrazide]	4.5 nM	225 nM	12 nM	18.75
Cc1cc2cc(C(=O)N(Cc3ccc(C4=CCOCC4)cn3)N(C)c3ncccn3)ccc2nc1N [Example 159, 2-amino-N-((5-(3,6-dihydro-2H-pyran-4-yl)pyridin-2-yl)methyl)-N',3-dimethyl-N' -(pyrimidin-2-yl)quinoline-6-carbohydrazide]	3.3 nM	2070 nM	72 nM	28.76
Cc1ccc(-c2ccc(CN(C(=O)c3ccc4nc(N)c(C)cc4c3)N(C)c3ncccn3)nc2)cn1 [Example 160, 2-amino-N',3-dimethyl-N-((6'-methyl-[3, 3'-bipyridine]-6-yl)methyl)-N'-(pyrimidin-2-yl)quinoline-6-carbohydrazide]	2 nM	580 nM	27 nM	21.48
COc1ncc(F)cc1-c1ccc(CN(C(=O)c2ccc3nc(N)c(C)cc3c2)N(C)c2ncccn2)nc1 [Example 161, 2-amino-N-((5'-fluoro-2'-methoxy-[3,3'-bipyridine]-6-yl)methyl)-N',3-dimethyl-N'-(pyrimidin-2-yl)quinoline-6-carbohydrazide]	1.7 nM	1780 nM	87 nM	20.48
Cc1cc2cc(C(=O)N(Cc3ccc(-c4cnn(C)c4)cn3)N(C)c3nccc4nccnc34)ccc2nc1N [Example 162, 2-amino-N',3-dimethyl-N-((5-(1-methyl-1H-pyrazol-4-yl)pyridin-2-yl)methyl)-N'-(pyrido[3,4-b]pyrazin-5-yl)quinoline-6-carbohydrazide]	5.4 nM	850 nM	36 nM	23.61
Cc1cc2cc(C(=O)N(Cc3ccc(-c4cccnc4)cn3)N(C)c3ncccc3F)ccc2nc1N [Example 163, N-([3,3'-bipyridine]-6-ylmethyl)-2-amino -N'-(3-fluoropyridin-2-yl)-N',3-dimethylq uinoline-6-carbohydrazide]	1.4 nM	465 nM	15 nM	31.00
Cc1cc2cc(C(=O)N(Cc3ccc(C4CC4)cn3)N(C)c3ncccc3F)ccc2nc1N [Example 164, 2-amino-N-((5-cyclopropylpyridin-2-yl)methyl)-N'-(3-fluoropyridin-2-yl)-N',3-di methylquinoline-6-carbohydrazide]	0.9 nM	443 nM	20 nM	22.15
